Experiments:
[1] = biological target: T1, NLN Neurolysin, mitochondrial (Homo sapiens, UniProt Q9BYT8); assay: competitive isoTOP-ABPP; format: binding; settings: for R value (DMSO/fragment) for probe 1 labeling: Q9BYT8_K253; for R value (DMSO/fragment) for probe 1 labeling / isoTOP-ABPP reactivity ratio at lysine Q9BYT8_K253 / isoTOP-ABPP ratio (R) at liganded lysine Q9BYT8_K253: 50 uM, in vitro; for R value (DMSO/fragment) for probe 1 labeling / isoTOP-ABPP reactivity ratio at lysine Q9BYT8_K253: 231 sol; for isoTOP-ABPP ratio (R) at liganded lysine Q9BYT8_K253: sol, 231
T1 construct: isoTOP-ABPP experiments performed in cell lysates (in vitro); endogenous in cells; host or cells: soluble proteome of human cancer cell lines (MDA-MB-231; Ramos and Jurkat also prepared)
Outline: (§1)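 Cell lysate (0.5 ml) was pre-treated with fragment, 50 μM for activated esters or 100 μM for guanidinylating agents, versus DMSO, then labeled 1 h at ambient temperature with 0.1 mM STP-alkyne. Light/heavy TEV tags attached by CuAAC; R = DMSO/compound MS1 peak-area ratio, median per lysine.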

[2] = biological target: T2, ETFA Electron transfer flavoprotein subunit alpha, mitochondrial (Homo sapiens, UniProt P13804); assay: competitive isoTOP-ABPP; format: binding; settings: for R value (DMSO/fragment) for probe 1 labeling: P13804_K139; for R value (DMSO/fragment) for probe 1 labeling / isoTOP-ABPP reactivity ratio at lysine P13804_K139 / isoTOP-ABPP ratio (R) at liganded lysine P13804_K139: 50 uM, in vitro; for R value (DMSO/fragment) for probe 1 labeling / isoTOP-ABPP reactivity ratio at lysine P13804_K139: 231 sol; for isoTOP-ABPP ratio (R) at liganded lysine P13804_K139: sol, 231
T2 construct: isoTOP-ABPP experiments performed in cell lysates (in vitro); endogenous in cells; host or cells: soluble proteome of human cancer cell lines (MDA-MB-231; Ramos and Jurkat also prepared)
T2 sequence (P13804 20-333): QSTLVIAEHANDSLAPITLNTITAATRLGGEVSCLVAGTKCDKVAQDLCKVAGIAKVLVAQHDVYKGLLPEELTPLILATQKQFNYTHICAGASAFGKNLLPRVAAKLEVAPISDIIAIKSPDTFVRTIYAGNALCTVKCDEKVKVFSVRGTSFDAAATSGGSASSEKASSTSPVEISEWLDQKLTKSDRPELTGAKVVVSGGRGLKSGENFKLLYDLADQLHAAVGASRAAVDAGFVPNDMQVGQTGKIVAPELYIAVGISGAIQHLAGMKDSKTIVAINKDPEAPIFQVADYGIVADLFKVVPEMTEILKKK
T2 sequence (P38117 2-255 partner limits assumed): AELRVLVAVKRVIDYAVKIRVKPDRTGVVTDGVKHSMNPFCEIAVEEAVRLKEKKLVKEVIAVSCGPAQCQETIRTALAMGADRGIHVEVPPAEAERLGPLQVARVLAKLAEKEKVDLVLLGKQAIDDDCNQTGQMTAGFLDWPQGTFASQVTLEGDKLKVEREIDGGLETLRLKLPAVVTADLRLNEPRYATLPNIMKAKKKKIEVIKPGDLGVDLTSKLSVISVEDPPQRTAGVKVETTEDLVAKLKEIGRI
Outline: as §1

T1 sequence (Q9BYT8 38-704): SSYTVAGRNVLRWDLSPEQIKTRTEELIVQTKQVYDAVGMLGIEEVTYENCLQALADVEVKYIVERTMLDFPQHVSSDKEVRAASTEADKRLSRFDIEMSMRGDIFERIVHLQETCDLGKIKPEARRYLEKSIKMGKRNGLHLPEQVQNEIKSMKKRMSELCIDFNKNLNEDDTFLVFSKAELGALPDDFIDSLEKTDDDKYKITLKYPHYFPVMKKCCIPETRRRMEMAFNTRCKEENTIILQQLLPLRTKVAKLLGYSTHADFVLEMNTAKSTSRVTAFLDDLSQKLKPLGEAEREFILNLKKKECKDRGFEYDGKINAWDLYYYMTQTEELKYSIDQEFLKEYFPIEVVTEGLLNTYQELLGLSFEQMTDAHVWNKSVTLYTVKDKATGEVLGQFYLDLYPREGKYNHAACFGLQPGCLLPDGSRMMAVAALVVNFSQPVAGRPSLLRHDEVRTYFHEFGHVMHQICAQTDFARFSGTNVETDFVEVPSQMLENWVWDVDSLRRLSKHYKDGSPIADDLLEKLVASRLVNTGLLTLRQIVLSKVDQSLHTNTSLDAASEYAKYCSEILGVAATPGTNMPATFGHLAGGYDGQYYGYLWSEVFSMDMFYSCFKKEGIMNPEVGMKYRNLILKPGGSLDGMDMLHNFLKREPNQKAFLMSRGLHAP

`O=C(CCc1cn(-c2ccccc2)nc1-c1ccccc1)Oc1c(F)c(F)c(F)c(F)c1F` [fragment 19, Pentafluorophenyl 3-(1,3-diphenyl-1H-pyrazol-4-yl)propanoate] was tested. Which “R value (DMSO/fragment) for probe 1 labeling” value (“R value (DMSO/fragment)” below) [1] did it give?
The value was 1.0.

What does the source list for `O=C(Oc1c(F)c(F)c(F)c(F)c1F)C(c1ccccc1)c1ccccc1` [fragment 20, Pentafluorophenyl 2,2-diphenylacetate]?
R value (DMSO/fragment) for probe 1 labeling [1]: 0.9; R value (DMSO/fragment) for probe 1 labeling [2]: 0.9

How did the “R value (DMSO/fragment)” value [1] turn out when `O=C(Oc1c(F)c(F)c(F)c(F)c1F)c1cc(C(F)(F)F)cc(C(F)(F)F)c1` [fragment 21, Pentafluorophenyl 3,5-bis(trifluoromethyl)benzoate] was run?
The value was 0.7.

What does the source list for `Cn1cc(CC(=O)Oc2c(F)c(F)c(F)c(F)c2F)c2ccccc21` [fragment 22, Pentafluorophenyl 2-(1-methyl-1H-indol-3-yl)acetate]?
R value (DMSO/fragment) for probe 1 labeling [1]: 1.5; R value (DMSO/fragment) for probe 1 labeling [2]: 0.9

How did the “R value (DMSO/fragment)” value [2] turn out when `COc1cc(CCC(=O)Oc2c(F)c(F)c(F)c(F)c2F)cc(OC)c1OC` [fragment 23, Pentafluorophenyl 3-(3,4,5-trimethoxyphenyl)propanoate] was run?
Its value is 1.4.

`O=C(Oc1c(F)c(F)c(F)c(F)c1F)C1CCN(C(=O)OCc2ccccc2)CC1` [fragment 24, 1-Benzyl 4-(pentafluorophenyl) piperidine-1,4-dicarboxylate] was tested. Which “isoTOP-ABPP reactivity ratio at lysine P13804_K139” value [2] did it give?
Its value is 1.1.

Which “isoTOP-ABPP reactivity ratio at lysine Q9BYT8_K253” value [1] does the source give for `O=C(Oc1c(F)c(F)c(F)c(F)c1F)c1ccc2ccccc2n1` [fragment 25, Pentafluorophenyl quinoline-2-carboxylate] here?
The value was 0.9.

With `O=C(CCc1coc2cc(F)ccc2c1=O)Oc1c(F)c(F)c(F)c(F)c1F` [fragment 26, Pentafluorophenyl 3-(7-fluoro-4-oxo-4H-chromen-3-yl)propanoate] as the compound, how does the “isoTOP-ABPP reactivity ratio at lysine Q9BYT8_K253” value [1] read?
The value was 1.2.

With `O=C(CCc1cn(-c2ccccc2)nc1-c1ccccc1)Oc1ccc([N+](=O)[O-])cc1[N+](=O)[O-]` [fragment 29, 2,4-Dinitrophenyl 3-(1,3-diphenyl-1H-pyrazol-4-yl)propanoate] as the compound, how does the “isoTOP-ABPP reactivity ratio at lysine Q9BYT8_K253” value [1] read?
The value was 1.0.

What about the “isoTOP-ABPP reactivity ratio at lysine P13804_K139” value [2] of the same compound?
The value was 0.8.

How did the “isoTOP-ABPP reactivity ratio at lysine Q9BYT8_K253” value [1] turn out when `O=C(Oc1ccc([N+](=O)[O-])cc1[N+](=O)[O-])C(c1ccccc1)c1ccccc1` [fragment 30, 2,4-Dinitrophenyl 2,2-diphenylacetate] was run?
The value was 1.3.

What about the “isoTOP-ABPP reactivity ratio at lysine P13804_K139” value [2] of the same compound?
Its value is 20.0.

With `O=C(Oc1ccc([N+](=O)[O-])cc1[N+](=O)[O-])c1cc(C(F)(F)F)cc(C(F)(F)F)c1` [fragment 31, 2,4-Dinitrophenyl 3,5-bis(trifluoromethyl)benzoate] as the compound, how does the “isoTOP-ABPP reactivity ratio at lysine Q9BYT8_K253” value [1] read?
Its value is 1.5.

And the “isoTOP-ABPP reactivity ratio at lysine P13804_K139” value [2]?
The value was 0.8.

For `Cn1cc(CC(=O)Oc2ccc([N+](=O)[O-])cc2[N+](=O)[O-])c2ccccc21` [fragment 32, 2,4-Dinitrophenyl 2-(1-methyl-1H-indol-3-yl)acetate], which “isoTOP-ABPP reactivity ratio at lysine Q9BYT8_K253” value [1] is on record?
Its value is 1.7.

What about the “isoTOP-ABPP reactivity ratio at lysine P13804_K139” value [2] of the same compound?
Its value is 20.0.

Which results are given for `COc1cc(CCC(=O)Oc2ccc([N+](=O)[O-])cc2[N+](=O)[O-])cc(OC)c1OC` [fragment 33, 2,4-Dinitrophenyl 3-(3,4,5-trimethoxyphenyl)propanoate]?
isoTOP-ABPP reactivity ratio at lysine Q9BYT8_K253 [1]: 4.1; isoTOP-ABPP reactivity ratio at lysine P13804_K139 [2]: 0.7

With `O=C(Oc1ccc([N+](=O)[O-])cc1[N+](=O)[O-])c1ccc2ccccc2n1` [fragment 35, 2,4-Dinitrophenyl quinoline-2-carboxylate] as the compound, how does the “isoTOP-ABPP ratio (R) at liganded lysine Q9BYT8_K253” value [1] read?
The value was 1.1.

And the “isoTOP-ABPP ratio (R) at liganded lysine P13804_K139” value [2]?
The value was 0.9.

Which “isoTOP-ABPP ratio (R) at liganded lysine P13804_K139” value [2] does the source give for `O=C(CCc1coc2cc(F)ccc2c1=O)Oc1ccc([N+](=O)[O-])cc1[N+](=O)[O-]` [fragment 36, 2,4-Dinitrophenyl 3-(7-fluoro-4-oxo-4H-chromen-3-yl)propanoate] here?
Its value is 0.7.

With `O=C(Oc1ccc([N+](=O)[O-])cc1[N+](=O)[O-])c1ccc(-c2ccccc2)cc1` [fragment 37, 2,4-Dinitrophenyl [1,1′-biphenyl]-4-carboxylate] as the compound, how does the “isoTOP-ABPP ratio (R) at liganded lysine Q9BYT8_K253” value [1] read?
The value was 0.9.

What about the “isoTOP-ABPP ratio (R) at liganded lysine P13804_K139” value [2] of the same compound?
The value was 0.9.

For `O=C(CC12CC3CC(CC(C3)C1)C2)Oc1ccc([N+](=O)[O-])cc1[N+](=O)[O-]` [fragment 38, 2,4-Dinitrophenyl 2-(adamantan-1-yl)acetate], which “isoTOP-ABPP ratio (R) at liganded lysine Q9BYT8_K253” value [1] is on record?
The value was 0.8.

Which “isoTOP-ABPP ratio (R) at liganded lysine Q9BYT8_K253” value [1] does the source give for `O=C(Oc1ccc([N+](=O)[O-])cc1[N+](=O)[O-])c1ccc(Oc2ccccc2)cc1` [fragment 39, 2,4-Dinitrophenyl 4-phenoxybenzoate] here?
Its value is 1.1.

And the “isoTOP-ABPP ratio (R) at liganded lysine P13804_K139” value [2]?
Its value is 0.6.

What does the source list for `O=C(Oc1ccc([N+](=O)[O-])cc1[N+](=O)[O-])c1ccccc1Nc1cccc(C(F)(F)F)c1` [fragment 40, 2,4-Dinitrophenyl 2-((3-(trifluoromethyl)phenyl)amino)benzoate]?
isoTOP-ABPP ratio (R) at liganded lysine Q9BYT8_K253 [1]: 0.9; isoTOP-ABPP ratio (R) at liganded lysine P13804_K139 [2]: 0.9

`CC(C)(C)OC(=O)NCCCC(=O)Oc1ccc([N+](=O)[O-])cc1[N+](=O)[O-]` [fragment 41, 2,4-Dinitrophenyl 4-((tert-butoxycarbonyl)amino)butanoate] was tested. Which “isoTOP-ABPP ratio (R) at liganded lysine Q9BYT8_K253” value [1] did it give?
The value was 1.3.

And the “isoTOP-ABPP ratio (R) at liganded lysine P13804_K139” value [2]?
The value was 20.0.

For `O=C(Oc1ccc([N+](=O)[O-])cc1[N+](=O)[O-])C(c1ccccc1)(c1ccccc1)c1ccccc1` [fragment 42, 2,4-Dinitrophenyl 2,2,2-triphenylacetate], which “isoTOP-ABPP ratio (R) at liganded lysine Q9BYT8_K253” value [1] is on record?
Its value is 0.8.

With `CC(=O)Oc1ccc([N+](=O)[O-])cc1[N+](=O)[O-]` [fragment 43, 2,4-Dinitrophenyl acetate] as the compound, how does the “isoTOP-ABPP ratio (R) at liganded lysine Q9BYT8_K253” value [1] read?
The value was 0.8.

How did the “isoTOP-ABPP ratio, lysine P13804_K139” value ([2]; 50 uM_231_sol_in vitro) turn out when `N#Cc1ccc(C(=O)Oc2ccc([N+](=O)[O-])cc2[N+](=O)[O-])cc1` [fragment 44, 2,4-Dinitrophenyl 4-cyanobenzoate] was run?
Its value is 0.9.

With `O=C(CCc1ccc2c(c1)OCO2)Oc1ccc([N+](=O)[O-])cc1[N+](=O)[O-]` [fragment 45, 2,4-Dinitrophenyl 3-(benzo[d][1,3]dioxol-5-yl)propanoate] as the compound, how does the “isoTOP-ABPP ratio, lysine Q9BYT8_K253” value ([1]; 50 uM_231_sol_in vitro) read?
Its value is 1.3.

And the “isoTOP-ABPP ratio, lysine P13804_K139” value ([2]; 50 uM_231_sol_in vitro)?
The value was 1.0.

Which “isoTOP-ABPP ratio, lysine Q9BYT8_K253” value ([1]; 50 uM_231_sol_in vitro) does the source give for `O=C(ON1C(=O)CCC1=O)c1cc(C(F)(F)F)cc(C(F)(F)F)c1` [fragment 46, 3,5-Bis(trifluoromethyl)benzoic acid NHS ester] here?
Its value is 1.5.

And the “isoTOP-ABPP ratio, lysine P13804_K139” value ([2]; 50 uM_231_sol_in vitro)?
Its value is 0.9.

How did the “isoTOP-ABPP ratio, lysine P13804_K139” value ([2]; 50 uM_231_sol_in vitro) turn out when `O=C(Oc1c(F)c(F)c(C(F)(F)F)c(F)c1F)c1cc(C(F)(F)F)cc(C(F)(F)F)c1` [fragment 47, 2,3,5,6-Tetrafluoro-4-(trifluoromethyl)phenyl 3,5-bis(trifluoromethyl)benzoate] was run?
The value was 1.1.

How did the “isoTOP-ABPP ratio, lysine P13804_K139” value ([2]; 50 uM_231_sol_in vitro) turn out when `O=C(Oc1c(F)c(F)cc(F)c1F)c1cc(C(F)(F)F)cc(C(F)(F)F)c1` [fragment 48, 2,3,5,6-Tetrafluorophenyl 3,5-bis(trifluoromethyl)benzoate] was run?
The value was 0.9.

Which results are given for `CC(C)(C)OC(=O)N=C(NC(=O)OC(C)(C)C)n1cccn1` [fragment 50, reference compound]?
isoTOP-ABPP ratio, lysine Q9BYT8_K253 ([1]; 100 uM_231_sol_in vitro): 1.2; isoTOP-ABPP ratio, lysine P13804_K139 ([2]; 100 uM_231_sol_in vitro): 1.1

For `NC(=O)c1cc(C(F)(F)F)cc(C(F)(F)F)c1` [fragment 51, reference compound], which “isoTOP-ABPP ratio, lysine P13804_K139” value ([2]; 50 uM_231_sol_in vitro) is on record?
The value was 1.0.

From patent US20210255193A1, “LYSINE REACTIVE PROBES AND USES THEREOF” (The Scripps Research Institute, priority 2017, published 2021)
